Data on 6 molecules can be found in US5696146A, “Indole derivatives as steroid 5α-reductase inhibitors” (Pfizer Inc., priority 1993, dated 1997).

The structures appear in SMILES notation.

Assay [1] deals with T1, human testosterone 5α-reductase-1 (Homo sapiens, UniProt P18405).
T1 construct: expressed in transfected cells
T1 sequence (P18405 1-259): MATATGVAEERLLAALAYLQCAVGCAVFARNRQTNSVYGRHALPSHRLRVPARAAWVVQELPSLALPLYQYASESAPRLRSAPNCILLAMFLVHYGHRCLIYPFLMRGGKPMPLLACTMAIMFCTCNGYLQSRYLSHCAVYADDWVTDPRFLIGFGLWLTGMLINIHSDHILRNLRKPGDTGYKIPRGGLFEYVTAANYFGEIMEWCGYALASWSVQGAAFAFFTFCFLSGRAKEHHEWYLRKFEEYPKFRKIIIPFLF
The experiment in a line: in vitro inhibition of cloned human testosterone 5α-reductase-1 (test method 4). Format: biochemical. The text has this:
(4) The compounds of the formula (I) may be tested in vitro for human testosterone 5α-reductase-1 inhibitory activity using cloned human testosterone 5α-reductase-1 according to the procedure described in Proc. Natl. Acad. Sci. USA, 87, 3640 (1990).
(§1) The data were obtained using test method (4) set out on page 27 of the specification and test method (2) described on pages 24 to 26 of the specification, respectively.

Assay [2] addresses T2, human testosterone 5α-reductase-2 (Homo sapiens, UniProt P31213).
T2 construct: using tissue from hyperplastic human prostates; from tissue; host or cells: hyperplastic human prostate, 100,000G particulate preparation
T2 sequence (P31213 1-254): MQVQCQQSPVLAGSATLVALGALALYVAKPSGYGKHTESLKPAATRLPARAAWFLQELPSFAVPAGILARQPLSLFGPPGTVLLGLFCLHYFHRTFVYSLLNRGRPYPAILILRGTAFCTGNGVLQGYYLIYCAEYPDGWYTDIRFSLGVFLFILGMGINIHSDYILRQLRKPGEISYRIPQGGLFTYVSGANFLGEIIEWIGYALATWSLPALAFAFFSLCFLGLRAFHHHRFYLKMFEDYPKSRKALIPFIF
Put plainly: in vitro inhibition of human testosterone 5α-reductase-2 from hyperplastic human prostate tissue (test method 2). Format: biochemical. The conditions noted are these: hyperplastic human prostate particulate, pH 5.2, 37° C., 30 minutes. The protocol:
(2) The compounds of the formula (I) may be tested for their potency in inhibiting human testosterone 5α-reductase-2 using tissue from hyperplastic human prostates. In determining inhibitory potency against human prostatic 5α-reductase-2 the following procedure was employed:
Frozen human prostate tissue was pulverised in liquid nitrogen using a steel mortar and pestle. The powdered tissue was homogenised in 4 volumes of Buffer A (20 mM sodium phosphate, pH 6.5, containing 0.32M sucrose, 1 mM dithiothreitol and 50 μM NADPH) with an Ultra-Turrax homogeniser (Janke and Kunkel GmBH & Co., Staufen i. BR., Germany). The homogenate was centrifuged at 500G for 5 minutes to remove large particles of tissue, and the supernatant was then centrifuged at 100,000G for 1 hour. The resulting pellet was dispersed in Buffer A (1 ml per g of prostate tissue originally used) with the Ultra-Turrax homogeniser. This particulate preparation was then filtered through 2 layers of cheesecloth and the filtrate was stored as 2ml samples at -70° C.
The following components, dissolved in Buffer B (25 mM citrate phosphate buffer, pH 5.2), were added to a test tube: 100 μl of [^3 H]-testosterone (1 μCi, 1 nmol; Du Pont, NEN Research Products, Stevenage, U.K.), 100 μl of NADPH regeneration system (5 mM NADPH, 50 mM glucose 6-phosphate, 5 units/ml glucose 6-phosphate dehydrogenase), a compound of the formula (I) dissolved in 5 μl of dimethyl sulphoxide, and Buffer B to give a final reaction volume of 1 ml. The mixture was warmed to 37° C. and the reaction started by addition of an aliquot of prostate particulate suspension. The reaction mixture was incubated at 37° C. for 30 minutes and was then quenched by addition, with vigorous mixing, of 2 ml of ethyl acetate containing 20 μg each of testosterone and 5α-dihydrotestosterone as carriers. The aqueous and organic layers were separated by centrifugation at 2000 G for 10 minutes. The organic layer was transferred to a second test tube and evaporated to dryness under nitrogen. The residue was dissolved in 50-80μl of absolute ethanol, spotted onto a silica gel 60 F254 TLC plate (E. Merck, Darmstadt, Germany) and developed in dichloromethane:acetone (185:15).
The radiochemical content in the bands of the substrate (testosterone) and the product (5α-dihydrotestosterone) were determined with a RITA Radio TLC Analyser (Raytest Instruments Ltd., Sheffield, U.K.). The percent of recovered radiolabel converted to 5α-dihydrotestosterone was calculated and used to determine enzyme activity. All incubations were conducted so that no more than 15% of substrate (testosterone) was converted to product.
The experimentally obtained data for a range of inhibitor concentrations was computer fitted to a sigmoidal dose-response curve and concentrations of compound giving 50% inhibition of 5α-reductase activity (IC50 's) were calculated using a SIGFIT program (De Lean, A., Munson, P. J. and Rodbard, D., American Journal of Physiology, 235, E97 (1978)).
as §1

Take `CCCCCC1(c2ccc(CCC)cc2)Oc2ccc(CC(=O)c3cn(CCCC(=O)O)c4ccccc34)cc2O1` (stereo not drawn) [Example 4]: the concentration for half-maximal inhibition (IC50) in assay [1] amounted to 11 nM; in assay [2], 16.9 nM.

In the case of `CCCc1ccc(C2(CCC)Oc3ccc(CC(=O)c4cn(CCCC(=O)O)c5ccccc45)cc3O2)cc1` (stereo not drawn) [Example 3], the 50% inhibitory concentration (IC50) was determined as 14 nM in assay [1] and 13.3 nM in assay [2].

`CCCCC1(c2ccc(CC)cc2)Oc2ccc(CC(=O)c3cn(CCCC(=O)O)c4ccccc34)cc2O1` (stereo not drawn) [Example 5, 4-(3-[(2-n-butyl-2-[4-ethyl]phenyl-1,3-benzodioxolan-5-yl)methylcarbonyl]indol-1-yl)butanoic acid]: the half-inhibitory concentration (IC50) was 11 nM in assay [1] and 4.5 nM in assay [2].

In the case of `CCCCC1(c2ccc(CCC)cc2)Oc2ccc(CC(=O)c3cn(CCCC(=O)O)c4ccccc34)cc2O1` (stereo not drawn) [Example 1, 4-(3-[(2-n-Butyl-2-[4-n-propyl]phenyl-1,3-benzodioxolan-5-yl)methylcarbonyl]indol-1-yl)butanoic acid], the figures for the IC50 in assay [1] and in assay [2] were 15.5 nM and 6.9 nM, respectively.

Take `CCCCC1(c2ccc(CCC)cc2)Oc2ccc(CC(=O)c3cn(CCCC(=O)O)c4ccccc34)cc2O1` (stereo not drawn) [Example 6]: the IC50 in assay [1] is 17.5 nM; in assay [2], 2.3 nM.

For the molecule `CCCCCCC1(c2ccc(CCC)cc2)Oc2ccc(CC(=O)c3cn(CCCC(=O)O)c4ccccc34)cc2O1` (stereo not drawn) [Example 2], the IC50 amounted to 24 nM in assay [1] and 16.7 nM in assay [2].
